Laboratory results published in ChEMBL document CHEMBL4177550, “Bi- and Tetracyclic Spirotetronates from the Coal Mine Fire Isolate Streptomyces sp. LC-6-2” (J Nat Prod, 2017).
Activity calls are given as the source filed them.

Key:
Staphylococcus aureus = assay: Antibacterial activity against Staphylococcus aureus ATCC 6538 up to 60 uM after 16 to 48 hrs; assay type: functional, organism-based
Micrococcus luteus = assay: Antibacterial activity against Micrococcus luteus NRRL B-287 up to 60 uM after 16 to 48 hrs; assay type: functional, organism-based
Escherichia coli = assay: Antibacterial activity against Escherichia coli NRRL B-3708 up to 60 uM after 16 to 48 hrs; assay type: functional, organism-based
Salmonella enterica = assay: Antibacterial activity against Salmonella enterica ATCC 10708 up to 60 uM after 16 to 48 hrs; assay type: functional, organism-based
Saccharomyces cerevisiae = assay: Antifungal activity against Saccharomyces cerevisiae ATCC 204508 up to 60 uM after 16 to 48 hrs; assay type: functional, organism-based
A549 = assay: Cytotoxicity against human A549 cells assessed as decrease in cell viability up to 10 uM after 48 hrs by resazurin assay; assay type: functional, cell-based

Measured: Activity

C[C@@H]1C[C@H](C)/C(O)=C2/C(=O)O[C@]34C[C@@H](C)[C@]5(C)O[C@]23[C@@H](C[C@H]4[C@@H]5O)C1=O
inactive: all assays above

C[C@H]1C[C@](C)(O)C(=O)[C@@H]2[C@@H](O)[C@H]3[C@H](O)[C@@]4(C)O[C@@]25/C(=C\1O)C(=O)O[C@@]35C[C@H]4CO
inactive: all assays above

C[C@@H]1C[C@H](C)/C(O)=C2/C(=O)O[C@]34C[C@@](C)(O)[C@]5(C)O[C@]23[C@@H](C[C@H]4[C@@H]5O)C1=O
inactive: all assays above

CO[C@H]1[C@H]2[C@H](O)[C@@]3(C)O[C@@]45/C(=C(/O)[C@@H](C)C[C@](C)(O)C(=O)[C@H]14)C(=O)O[C@@]25C[C@H]3C
inactive: all assays above

CC(=O)C[C@H](C)C(=O)C1=C(O)[C@@]2(C[C@@H](C)C(C)=C[C@H]2/C=C/C(=O)O)OC1=O
inactive: all assays above

C[C@@H]1C[C@H](C)/C(O)=C2/C(=O)O[C@]34C[C@@H](CO)[C@]5(C)O[C@]23[C@@H](C[C@H]4[C@@H]5O)C1=O
inactive: all assays above

C[C@@H]1C[C@]23OC(=O)/C4=C(\O)[C@@H](C)C[C@](C)(O)C(=O)[C@@H]5[C@@H](O)[C@H]2[C@H](O)[C@@]1(C)O[C@@]453
inactive: all assays above

C[C@H]1C[C@](C)(O)C(=O)[C@@H]2[C@@H](O)[C@H]3[C@H](O)[C@@]4(C)O[C@@]25/C(=C\1O)C(=O)O[C@@]35C[C@@]4(C)O
inactive: all assays above

C[C@@H]1C[C@@]23OC(=O)C4=C2O[C@]1(C)[C@@H](O)[C@@H]3[C@H]1O[C@H]1C(=O)[C@@](C)(O)C[C@H](C)C4=O
inactive: all assays above

C[C@@H]1C[C@H](C)/C(O)=C2/C(=O)O[C@]34C[C@@](C)(O)[C@]5(C)O[C@]23[C@@H](C[C@@]42O[C@H]25)C1=O
inactive: all assays above

C[C@@H]1C[C@H](C)C(=O)C2=C3O[C@@]4(C)[C@H](CO)C[C@]3(OC2=O)[C@@H](CCC1=O)[C@@H]4O
inactive: all assays above

C[C@H]1C[C@](C)(O)C(=O)C[C@@H]2/C(=C\1O)C(=O)O[C@]13C[C@H](C)[C@](C)(OC1=O)[C@@H](O)[C@H]23
inactive: all assays above
